We go through 17 molecules from patent US4464388A, “Use of prostaglandin analogues to treat cytodamage” (priority 1982, dated 1984).

Like-named read-outs stand apart in the source and are kept apart here.

In data set [1] the test system is carbon tetrachloride (CCl4) induced liver damage. In words: Effect on carbon tetrachloride (CCl4) induced liver damage (liver cell necrosis type). The format is in vivo, Male Wistar rats. The note with it: for inhibition in vivo at 0.1 mg/kg / inhibition in vivo at 0.02 mg/kg / inhibition in vivo at 0.5 mg/kg / inhibition in vivo at 0.05 mg/kg / inhibition in vivo at 1 mg/kg / inhibition in vivo at 1.5 mg/kg: Rattus norvegicus, 24 h; for inhibition in vivo at 0.02 mg/kg: 20 μg/kg; for inhibition in vivo at 0.5 mg/kg: 500 μg/kg; for inhibition in vivo at 0.05 mg/kg: 50 μg/kg; for inhibition in vivo at 1 mg/kg: 1000 μg/kg; for inhibition in vivo at 1.5 mg/kg: 1500 μg/kg. How it is done:
Effect on carbon tetrachloride (CCl4) induced liver damage (liver cell necrosis type)
Male Wistar rats weighing 180-220 g were used. Rats were dosed intraperitoneally with CCl4 dissolved in olive oil (5%, w/v) at a volume of 500 μl/kg after 18 hr starvation. The compound under test was administered orally (p.o.) or subcutaneously (s.c.) 6 and 12 hr after CCl4 injection in rats and blood was collected after 24 hr. Plasma glutamic oxaloacetic transaminase (GOT) and glutamic pyruvic transaminase (GPT) activities were determined by ultraviolet absorbance methods (optimised method based on the recommendations of the Deutsche Gesellschaft fur Klinische Chemie). The effects of the compounds tested were assessed by the inhibition rate in comparison with controls. Inhibition rate was calculated by the following formula. [formula] The results obtained are shown in the following Tables 1A and 1B for compounds of the general formula: [drawing 10] wherein R, R^1 and --X--Y--Z-- have the meanings indicated.
In Tables 1A, 1B and 2 to 5 hereinafter the dose shown in the amount given at each administration of the compound under test.

The next data set is described as follows: Acute toxicity test. The note with it: mouse, in vivo; oral, mice observed for 14 days. The procedure: Male JCL-ICR mice (non SPF mice) from 7 weeks of age were used. The compound under test was dissolved in 5% v/v ethanol containing 0.4% w/v Tween 80 (Tween is a registered trademark) and administered orally to the mice. […] The deaths observed were all within 72 hrs after treatment.

The next data set deals with artery. The note with it: cited from earlier work.
The subject of data set [2] is blood platelet aggregation. The note with it: cited from earlier work.
Setting [3] is: po, p.o., 100 μg/kg, plasma GOT after 24 hr, read-out: inhibition rate GOT.
[4] abbreviates: po, p.o., 100 μg/kg, plasma GPT after 24 hr, read-out: inhibition rate GPT.
[5] abbreviates: sc, s.c., plasma GOT after 24 hr, read-out: inhibition rate GOT.
Where [6] appears, read: sc, s.c., plasma GPT after 24 hr, read-out: inhibition rate GPT.
Setting [7] is: po, p.o., plasma GOT after 24 hr, read-out: inhibition rate GOT.
Setting [8] is: po, p.o., plasma GPT after 24 hr, read-out: inhibition rate GPT.

Consider `CCCCC1CCC([C@H](O)/C=C/[C@H]2[C@H](O)CC(=O)[C@@H]2CC(=O)CCCCC(=O)OC)C1` (single isomer, unassigned) [Compound 8, 15-(3-Butylcyclopentyl)-16,17,18,19,20-pentanor-6-oxo-PGE1 methyl ester], for which the inhibition in vivo at 0.1 mg/kg in data set [1] (setting [3]) is 77.7%; in data set [1] (setting [4]), 73.7%. Further, the figures for the inhibition in vivo at 0.02 mg/kg in data set [1] (setting [5]) and in data set [1] (setting [6]) were 44.4% and 39.3%, respectively. In addition, the LD50 at 336 h in “Acute toxicity test” lay within 10 to 20 mg/kg.

`CCCC1CCC([C@H](O)/C=C/[C@H]2[C@H](O)CC(=O)[C@@H]2CC(=O)CCCCC(=O)OC)C1` (single isomer, unassigned) [Compound 12, 15-(3-Propylcyclopentyl)-16,17,18,19,20-pentanor-6-oxo-PGE1 methyl ester]: in data set [1] (p.o., 100 μg/kg, plasma GOT after 24 hr), the “inhibition rate GOT” value turned out to be 25.4%. The “inhibition rate GPT” value in data set [1] (p.o., 100 μg/kg, plasma GPT after 24 hr) turned out to be 22.2%.

On to `CCCC1CCC([C@H](O)/C=C/[C@@H]2[C@H]3CC(CCCCC(=O)OC)=N[C@H]3C[C@H]2O)C1` (single isomer, unassigned) [Compound 14, 15-(3-Propylcyclopentyl)-16,17,18,19,20-pentanor-6,9α-nitrilo-PGI1 methyl ester], for which the inhibition in vivo at 0.5 mg/kg in data set [1] (setting [7]) came out at 39.8%; in data set [1] (setting [8]) it was 20.8%; in data set [1] (setting [5]), 68.6%; in data set [1] (setting [6]), 64.2%. The molecule further showed a 50% lethal dose (LD50) at 336 h in “Acute toxicity test” of 40 to 100 mg/kg.

On to `CCC1CC([C@H](O)/C=C/[C@H]2[C@H](O)CC(=O)[C@@H]2CC(=O)CCCCC(=O)OC)C1` (stereo partly shown) [Compound 1, 15-(3-Ethylcyclobutyl)-16,17,18,19 20-pentanor-6-oxo-PGE1 methyl ester], for which the inhibition in vivo at 0.05 mg/kg in data set [1] (setting [5]) stood at 21%; in data set [1] (setting [6]) it was 0%.

For the molecule `CCCC1CC([C@H](O)/C=C/[C@H]2[C@H](O)CC(=O)[C@@H]2CC(=O)CCCCC(=O)OC)C1` (stereo partly shown) [Compound 2, 15-(3-Propylcyclobutyl)-16,17,18,19,20-pentanor-6-oxo-PGE1 methyl ester], the figures for the inhibition in vivo at 0.05 mg/kg in data set [1] (setting [5]) and in data set [1] (setting [6]) were 52.4% and 17.3%, respectively.

In the case of `COC(=O)CCCCC(=O)C[C@H]1C(=O)C[C@@H](O)[C@@H]1/C=C/[C@@H](O)C1CCCC1` [Compound 3, 15-Cyclopentyl-16,17,18,19,20-pentanor-6-oxo-PGE1 methyl ester], the inhibition in vivo at 0.1 mg/kg amounted to 19% in data set [1] (setting [3]) and 30.5% in data set [1] (setting [4]). In the data set “Acute toxicity test”, this molecule displayed an LD50 at 336 h of 10 to 20 mg/kg.

For the molecule `CCCC1CCC([C@H](O)/C=C/[C@H]2[C@H](O)CC(=O)[C@@H]2CC(=O)CCCCC(=O)OC)C1` (stereo partly shown) [Compound 4, 15-(3-Propylcyclopentyl)-16,17,18,19,20-pentanor-6-oxo-PGE1 methyl ester], the inhibition in vivo at 0.1 mg/kg in data set [1] (setting [3]) amounted to 77%; in data set [1] (setting [4]) it was 51.5%.

In the case of `CCCC1CCC([C@H](O)/C=C/[C@H]2[C@H](O)CC(=O)[C@@H]2CC(=O)CCCCC(=O)O)C1` (stereo partly shown) [Compound 5, 15-(3-Propylcyclopentyl)-16,17,18,19,20-pentanor-6-oxo-PGE1], the figures for the inhibition in vivo at 0.1 mg/kg in data set [1] (setting [3]) and in data set [1] (setting [4]) were 32.6% and 44.5%, respectively.

As to `CCCCC1CCC([C@H](O)/C=C/[C@H]2[C@H](O)CC(=O)[C@@H]2CC(=O)CCCCC(=O)OC)C1` (stereo partly shown) [Compound 7, 15-(3-Butylcyclopentyl)-16,17,18,19,20-pentanor-6-oxo-PGE1 methyl ester], the inhibition in vivo at 0.1 mg/kg in data set [1] (setting [3]) is 62.7%; in data set [1] (setting [4]), 55.1%.

In the case of `COC(=O)CCCCC(=O)C[C@H]1C(=O)C[C@@H](O)[C@@H]1/C=C/[C@@H](O)C1CCC(C)CC1` (stereo partly shown) [Compound 9, 15-(4-Methylcyclohexyl)-16,17,18,19,20-pentanor-6-oxo-PGE1 methyl ester], the inhibition in vivo at 0.1 mg/kg in data set [1] (setting [3]) worked out at 21%; in data set [1] (setting [4]) it was 0%. The figures for the inhibition in vivo at 0.05 mg/kg in data set [1] (setting [5]) and in data set [1] (setting [6]) were 13.1% and 8.8%, respectively.

Turning to `CCC1CCC([C@H](O)/C=C/[C@H]2[C@H](O)CC(=O)[C@@H]2CC(=O)CCCCC(=O)OC)CC1` (stereo partly shown) [Compound 10, 15-(4-Ethylcyclohexyl)-16,17,18,19,20-pentanor-6-oxo-PGE1 methyl ester], the inhibition in vivo at 0.05 mg/kg in data set [1] (setting [5]) is 35.6%; in data set [1] (setting [6]), 12.2%.

Turning to `CCCC1CCC([C@H](O)/C=C/[C@H]2[C@H](O)CC(=O)[C@@H]2CC(=O)CCCCC(=O)OC)CC1` (stereo partly shown) [Compound 11, 15-(4-Propylcyclohexyl)-16,17,18,19,20-pentanor-6-oxo-PGE1 methyl ester], the inhibition in vivo at 0.05 mg/kg in data set [1] (setting [5]) turned out to be 48.5%; in data set [1] (setting [6]) it was 45.1%.

Regarding `CCCC1CCC([C@H](O)/C=C/[C@@H]2[C@H]3CC(CCCCC(=O)OC)=N[C@H]3C[C@H]2O)C1` (stereo partly drawn) [Compound 13, 15-(3-Propylcyclopentyl)-16,17,18,19,20-pentanor-6,9α-nitrilo-PGI1 methyl ester], the results for the inhibition in vivo at 1 mg/kg in data set [1] (setting [7]) and in data set [1] (setting [8]) were 46% and 32.5%, respectively.

Turning to `CCCCC1CCC([C@H](O)/C=C/[C@@H]2[C@H]3CC(CCCCC(=O)OC)=N[C@H]3C[C@H]2O)C1` (stereo partly drawn) [Compound 15, 15-(3-Butylcyclopentyl)-16,17,18,19,20-pentanor-6,9α-nitrilo-PGI1 methyl ester], the inhibition in vivo at 1 mg/kg in data set [1] (setting [7]) came out at 45.5%; in data set [1] (setting [8]) it was 15.6%.

For `CCCC1CCC([C@H](O)/C=C/[C@@H]2[C@H]3CC(CCCCC(=O)OC)O[C@H]3C[C@H]2O)C1` (stereo partly shown) [Compound 16, 15-(3-Propylcyclopentyl)-16,17,18,19,20-pentanor-PGI1 methyl ester], the inhibition in vivo at 1.5 mg/kg is 51% in data set [1] (setting [7]) and 53% in data set [1] (setting [8]).

For `CCCC1CCC([C@H](O)/C=C/[C@@H]2[C@H]3C[C@H](CCCCC(=O)OC)O[C@H]3C[C@H]2O)C1` (stereo partly drawn) [Compound 17, (6S)-15-(3-propylcyclopentyl)-16,17,18,19,20-pentanor-PGI1 methyl ester], the inhibition in vivo at 1 mg/kg in data set [1] (setting [7]) was 32.9%; in data set [1] (setting [8]), 32%.

Consider `CCCCC[C@H](O)/C=C/[C@H]1O[C@H]2C[C@H](O2)[C@@H]1C/C=C\CCCC(=O)O` [thromboxane A2], for which the “activity on the artery” value in the data set with artery is given as “contracting activity”. Further, in data set [2], the “effect on blood platelet aggregation” value is on record as “aggregating activity”.

The LD50 is the dose expected to kill half of the subjects tested.
